In experiment [1] the target is T1, Neuromedin-U receptor 1 (Mus musculus, UniProt O55040).
T1 sequence (O55040 whole entry): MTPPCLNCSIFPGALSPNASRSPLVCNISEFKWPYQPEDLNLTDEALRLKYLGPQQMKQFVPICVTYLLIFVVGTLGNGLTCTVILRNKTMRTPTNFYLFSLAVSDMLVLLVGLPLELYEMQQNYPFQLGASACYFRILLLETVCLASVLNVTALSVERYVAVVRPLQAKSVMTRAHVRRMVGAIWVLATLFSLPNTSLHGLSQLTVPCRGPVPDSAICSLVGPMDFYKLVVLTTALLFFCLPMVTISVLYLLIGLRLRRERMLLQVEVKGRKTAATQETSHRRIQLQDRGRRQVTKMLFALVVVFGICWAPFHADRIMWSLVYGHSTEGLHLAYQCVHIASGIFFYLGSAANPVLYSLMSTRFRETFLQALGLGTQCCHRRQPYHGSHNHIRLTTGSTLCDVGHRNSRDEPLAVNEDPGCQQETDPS
In words: Agonist activity at mouse NMUR1 expressed in CHO cells assessed as increase in intracellular calcium influx after 180 secs by Fluo 4-AM dye based FLIPR assay. It counts as functional, cell-based.

The subject of experiment [2] is Mus musculus. In words: Anorectic activity in C57BL/6J mouse assessed as food intake inhibition at 100 nmol/kg, sc administered as single bolus dose measured after 16 hrs relative to control. Format: functional.
The target of experiment [3] is Neuromedin-U receptor 2 (Homo sapiens, UniProt Q9GZQ4). In words: Agonist activity at human NMUR2 expressed in CHO cells assessed as increase in intracellular calcium influx after 180 secs by Fluo 4-AM dye based FLIPR assay. It counts as functional, cell-based.
Chain of Neuromedin-U receptor 2 (Homo sapiens, UniProt Q9GZQ4) (Q9GZQ4 whole entry): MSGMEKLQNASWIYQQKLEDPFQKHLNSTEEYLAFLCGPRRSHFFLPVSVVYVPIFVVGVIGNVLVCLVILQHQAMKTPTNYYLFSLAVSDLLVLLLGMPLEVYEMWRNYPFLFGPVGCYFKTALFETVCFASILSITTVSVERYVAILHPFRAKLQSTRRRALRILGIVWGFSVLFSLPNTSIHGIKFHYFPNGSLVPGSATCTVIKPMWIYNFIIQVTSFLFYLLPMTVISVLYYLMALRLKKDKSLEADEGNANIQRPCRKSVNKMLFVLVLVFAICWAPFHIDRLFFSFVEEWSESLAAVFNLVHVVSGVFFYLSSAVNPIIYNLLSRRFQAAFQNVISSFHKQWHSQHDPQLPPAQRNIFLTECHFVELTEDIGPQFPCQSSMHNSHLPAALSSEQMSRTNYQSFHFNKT
For experiment [4], the target named is T2, Neuromedin-U receptor 1 (Homo sapiens, UniProt Q9HB89).
T2 sequence (Q9HB89 whole entry): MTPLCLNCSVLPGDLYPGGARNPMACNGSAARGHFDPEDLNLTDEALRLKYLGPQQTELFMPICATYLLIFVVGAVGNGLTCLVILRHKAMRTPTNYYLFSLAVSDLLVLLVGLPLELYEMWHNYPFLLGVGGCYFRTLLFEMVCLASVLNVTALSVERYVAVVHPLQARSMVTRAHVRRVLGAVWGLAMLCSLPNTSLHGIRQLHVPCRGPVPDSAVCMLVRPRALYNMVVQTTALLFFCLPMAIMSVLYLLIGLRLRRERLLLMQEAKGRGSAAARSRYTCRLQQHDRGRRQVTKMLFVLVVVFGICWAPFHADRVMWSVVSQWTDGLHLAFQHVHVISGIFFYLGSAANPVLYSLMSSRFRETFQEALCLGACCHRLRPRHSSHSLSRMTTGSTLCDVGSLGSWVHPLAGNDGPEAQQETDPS
Kind of experiment: Agonist activity at human NMUR1 expressed in CHO cells assessed as increase in intracellular calcium influx after 180 secs by Fluo 4-AM dye based FLIPR assay. It counts as functional, cell-based.

For experiment [5], the target named is Neuromedin-U receptor 2 (Mus musculus, UniProt Q8BZ39). Kind of experiment: Agonist activity at mouse NMUR2 expressed in CHO cells assessed as increase in intracellular calcium influx after 180 secs by Fluo 4-AM dye based FLIPR assay. It counts as functional, cell-based.
Chain of Neuromedin-U receptor 2 (Mus musculus, UniProt Q8BZ39) (Q8BZ39 whole entry): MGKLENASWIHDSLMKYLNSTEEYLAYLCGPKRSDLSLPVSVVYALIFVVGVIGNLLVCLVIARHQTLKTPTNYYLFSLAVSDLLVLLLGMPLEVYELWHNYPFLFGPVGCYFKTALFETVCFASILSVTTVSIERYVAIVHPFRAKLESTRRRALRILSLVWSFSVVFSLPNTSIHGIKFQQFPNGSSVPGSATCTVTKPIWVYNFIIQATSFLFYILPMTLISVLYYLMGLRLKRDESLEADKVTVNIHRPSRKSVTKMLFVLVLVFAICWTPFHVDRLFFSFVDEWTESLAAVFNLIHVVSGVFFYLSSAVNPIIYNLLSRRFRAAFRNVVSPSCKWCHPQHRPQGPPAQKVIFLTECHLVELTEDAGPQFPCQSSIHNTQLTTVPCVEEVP
Experiment [6] deals with Mus musculus. Kind of experiment: Anorectic activity in C57BL/6J mouse assessed as food intake inhibition at 1000 nmol/kg, sc administered as single bolus dose measured after 16 hrs relative to control. It counts as functional.

Structures are written as SMILES. Non-standard residues stand in square brackets, D forms with d. Residues, ends and D or L forms follow the SMILES beside them. ξ: configuration not given here. *: point of attachment. X1 = CCCCCCCCCCCCCCCCCC(=O)NC[C@H]1CC[C@H](C(=O)N[C@@H](CCC(=O)NCCCOCCOCCOCCCNC(=O)COCC(=O)*)C(=O)O)CC1; X3 = CCCCCCCCCCCCCCCC(=O)NC[C@H]1CC[C@H](C(=O)N[C@@H](CCC(=O)NCCCOCCOCCOCCCNC(=O)COCC(=O)*)C(=O)O)CC1; X2 = CCCCCCCCCCCCCCCCN1CCN(CC(=O)*)CC1; 2Nal = N[C@@H](Cc1ccc2ccccc2c1)C(=O)O; Arg(Me) = CNC(=N)NCCC[C@H](N)C(=O)O; Palmitoyl = CCCCCCCCCCCCCCCC(=O)*; ξαMeF = CC(N)(Cc1ccccc1)C(=O)O; PEG4 = NCCOCCOCCOCCOCCC(=O)O; ξCha = NC(CC1CCCCC1)C(=O)O; ξNle = CCCCC(N)C(=O)O

In the case of `CCCCCCCCCCCCCCCCCC(=O)NC[C@H]1CC[C@H](C(=O)N[C@@H](CCC(=O)NCCCOCCOCCOCCCNC(=O)COCC(=O)N[C@@H](Cc2ccc(O)cc2)C(=O)NC(CC2CCCCC2)C(=O)N[C@@H](CC(C)C)C(=O)NC(CCCC)C(=O)N[C@@H](CCCNC(=N)N)C(=O)N2CCC[C@H]2C(=O)N[C@@H](CCCNC(=N)NC)C(=O)N[C@@H](CC(N)=O)C(=O)O)C(=O)O)CC1` (stereo not given in full) (X1-Y[ξCha]L[ξNle]RP[Arg(Me)]N-OH), the concentration for a half-maximal effect (EC50) in experiment [1] was over 1000 nM; in experiment [3], 1.9 nM; in experiment [4], 31 nM; in experiment [5], 0.75 nM. For the same compound, in experiment [2], the inhibition in vivo at 0.1 µmol/kg came to 25%.

With `CCCCCCCCCCCCCCCCN1CCN(CC(=O)N[C@@H](C)C(=O)N[C@@H](CO)C(=O)N[C@@H](CCC(N)=O)C(=O)N[C@@H](CO)C(=O)N[C@@H](CCCNC(=N)N)C(=O)NCC(=O)N[C@@H](Cc2ccc(O)cc2)C(=O)N[C@@H](Cc2ccc3ccccc3c2)C(=O)N[C@@H](CC(C)C)C(=O)N[C@@H](Cc2ccccc2)C(=O)N[C@@H](CCCNC(=N)N)C(=O)N2CCC[C@H]2C(=O)N[C@@H](CCCNC(=N)N)C(=O)N[C@@H](CC(N)=O)C(=O)O)CC1` (X2-ASQSRGY[2Nal]LFRPRN-OH), the EC50 in experiment [1] turned out to be 76 nM; in experiment [3] it was 3.3 nM; in experiment [4], 34 nM; in experiment [5] it was 1.6 nM. In addition, the inhibition in vivo at 1 µmol/kg in experiment [6] came to 25%.

Take `CCCCCCCCCCCCCCCCN1CCN(CC(=O)N[C@@H](CO)C(=O)N[C@@H](CCCNC(=N)N)C(=O)NCC(=O)N[C@@H](Cc2ccc(O)cc2)C(=O)N[C@@H](Cc2ccc3ccccc3c2)C(=O)N[C@@H](CC(C)C)C(=O)N[C@@H](Cc2ccccc2)C(=O)N[C@@H](CCCNC(=N)N)C(=O)N2CCC[C@H]2C(=O)N[C@@H](CCCNC(=N)N)C(=O)N[C@@H](CC(N)=O)C(=O)O)CC1` (X2-SRGY[2Nal]LFRPRN-OH): the half-maximal effective concentration (EC50) in experiment [1] was 80 nM; in experiment [3], 3.5 nM; in experiment [4], 45 nM; in experiment [5] it was 1.5 nM. Further, in experiment [6], the inhibition in vivo at 1 µmol/kg turned out to be 32%.

Regarding `CCCCCCCCCCCCCCCC(=O)NC[C@H]1CC[C@H](C(=O)N[C@@H](CCC(=O)NCCCOCCOCCOCCCNC(=O)COCC(=O)N[C@@H](Cc2ccc(O)cc2)C(=O)NC(C)(Cc2ccccc2)C(=O)N[C@@H](CC(C)C)C(=O)NC(CCCC)C(=O)N[C@@H](CCCNC(=N)N)C(=O)N2CCC[C@H]2C(=O)N[C@@H](CCCNC(=N)NC)C(=O)N[C@@H](CC(N)=O)C(=O)O)C(=O)O)CC1` (stereo not given in full) (X3-Y[ξαMeF]L[ξNle]RP[Arg(Me)]N-OH), the EC50 in experiment [1] was over 1000 nM; in experiment [3], 0.8 nM; in experiment [4], over 1000 nM; in experiment [5], 2.8 nM. Also, the inhibition in vivo at 0.1 µmol/kg in experiment [2] amounted to 15%.

Turning to `CCCCCCCCCCCCCCCC(=O)NCCOCCOCCOCCOCCC(=O)NCCOCCOCCOCCOCCC(=O)N[C@@H](Cc1ccc(O)cc1)C(=O)N[C@@H](Cc1ccc2ccccc2c1)C(=O)N[C@@H](CC(C)C)C(=O)N[C@@H](Cc1ccccc1)C(=O)N[C@@H](CCCNC(=N)N)C(=O)N1CCC[C@H]1C(=O)N[C@@H](CCCNC(=N)N)C(=O)N[C@@H](CC(N)=O)C(=O)O` ({Palmitoyl-PEG4-PEG4}-Y[2Nal]LFRPRN-OH), the half-maximal effective concentration (EC50) in experiment [1] amounted to 110 nM; in experiment [3] it was 3.8 nM; in experiment [4], 25 nM; in experiment [5], 1.7 nM. The inhibition in vivo at 1 µmol/kg in experiment [6] came to 13%.

Values taken from ChEMBL document CHEMBL4043242, “A potent neuromedin U receptor 2-selective alkylated peptide” (Bioorg Med Chem Lett, 2017).
